Data reported in patent US9326507B2, “Pheromone composition for treating Varroa mite infestation” (Universitaet Hohenheim, priority 2013, dated 2016).

Test system: male Varroa mites
Assay: mating bioassay: male response to a female deutochrysalis dummy
Assay type: in vivo, Varroa destructor
Conditions: pure substances tested at 1, 10, 100 and 1000 ng
Description: Male and female Varroa mites were obtained from brood combs of heavily infested Apis mellifera colonies at the Apicultural State Institute, University of Hohenheim in Germany. Sexually mature males and freshly molted adult females as well as female deutochrysalis were collected from brood cells 8 to 9 days after capping. Female deutochrysales and freshly molted adult female mites were transferred into queen cell cups (Nicot System®, Karl Jenter, Metzingen) and kept at 28-30° C. for a maximum of 2 hours in order to prevent a decrease in vitality and mobility.
The responses of male Varroa mites to extracts, fractions, and pure substances were measured by using the “mating bioassay”: total extracts, fractions and pure substances were applied to a piece of filter paper (size: 1.5 mm×15 mm) with a 10 μl Hamilton syringe. The filter paper was folded in the middle and placed at the edge of the plastic cell cups (Nicot System®, Karl Jenter, Metzingen, 9 mm inner diameter) that served as a test arena. A living female deutochrysalis was placed at the bottom of the cell cup at 3.5 mm distance to the filter paper. […] After three tests, the dummies were replaced by new ones. The male responses towards the deutochrysalis were categorized as follows: (1) movement towards/around the deutochrysalis and palpating it, (2) mounting the dorsum of the deutochrysalis and (3) copulation attempts on the venter of the deutochrysalis. The duration of each of these behaviours was recorded over a period of 5 minutes using the Observer 2.0 software (Noldus Information Technology). All tests were performed at temperatures of 33-34° C. at the bottom of the test arena.
The extract was applied to the filter paper in doses of 2 female equivalents; in control tests the filter paper was treated with ether only. Pentane and ether fractions were tested in concentrations of 5 female equivalents in the same way. The higher concentration was applied in order to equalize possible losses of active substances during the column fractionation. Single substances that were identified from the active fraction (see 2.6) were purchased (Sigma Aldrich, GC grade), dissolved in diethyl ether and were tested in doses of 1 ng, 10 ng, 100 ng and 1000 ng.
Behavioural data were analyzed with the SPSS 15.0 statistics software. One Way ANOVA was performed to evaluate the male response toward the female deutochrysalis while being exposed to total extracts, fractions or pure substances. Differences between groups with p<0.05 were considered statistically significant.

| SMILES | copulatory responses / male mating behaviour to pure substances | dosage of maximum copulatory responses [ng] | dosage of lowest copulatory responses [ng] |
| --- | --- | --- | --- |
| CCCCCCCC/C=C\CCCCCCCC(=O)OCC [ethyl oleate] | the same trend was evident, albeit without significant differences | – | – |
| CCCCCCCCCCCCCCCC(=O)OCC [ethyl palmitate] | – | 10 | – |
| CCCCCCCCCCCCCCCCCC(=O)OCC [ethyl stearate] | – | 10 | – |
| CCCCCCCC/C=C\CCCCCCCC(=O)O [oleic acid] | highest copulatory responses | 10 | 1000 |
| CCCCCCCCCCCCCCCC(=O)O [palmitic acid] | – | 10 | – |
| CCCCCCCCCCCCCCCCCC(=O)O [stearic acid] | lower compared to the other compounds | 1 | – |
